Here are results for 17 compounds from ChEMBL document CHEMBL1142749, “P2-P3 conformationally constrained ketoamide-based inhibitors of cathepsin K” (Bioorg Med Chem Lett, 2005).

Values after ≈ are worked out from the molar mass of the structure shown.

Data set [1] in a line: The equilibrium solubility exhibited in a fasted state-simulated intestinal fluid at pH 6.8. In kind it is ADME. As to conditions: human.
A further data set has as its target Procathepsin L (Homo sapiens, UniProt P07711). Put plainly: Inhibition of 5 µM Cbz-Phe-Arg-AMC bindign to human cathepsin L activity in fluorescence assay with 100 mM NaOAc.
A further data set concerns the target T1, Cathepsin L2 (Homo sapiens, UniProt O60911).
T1 sequence (O60911 whole entry): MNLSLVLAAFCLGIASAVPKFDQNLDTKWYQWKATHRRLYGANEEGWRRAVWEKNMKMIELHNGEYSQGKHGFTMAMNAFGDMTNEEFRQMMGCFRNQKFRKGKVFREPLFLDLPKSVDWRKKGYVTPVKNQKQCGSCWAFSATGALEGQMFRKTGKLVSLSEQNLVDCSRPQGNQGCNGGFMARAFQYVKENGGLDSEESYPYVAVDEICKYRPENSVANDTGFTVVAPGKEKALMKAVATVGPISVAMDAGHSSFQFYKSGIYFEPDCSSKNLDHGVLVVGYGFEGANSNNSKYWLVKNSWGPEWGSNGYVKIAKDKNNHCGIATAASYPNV
Description: Inhibition of 2 µM Cbz-Phe-Arg-AMC binding to human cathepsin V activity in fluorescence assay with 100 mM NaOAc.

In another data set the target is Cathepsin B (Homo sapiens, UniProt P07858). Put plainly: Inhibition of 10 µM Cbz-Phe-Arg-AMC binding to human cathepsin B activity in fluorescence assay with 100 mM NaOAc.
Another data set addresses T2, Cathepsin K (Homo sapiens, UniProt P43235).
T2 sequence (P43235 whole entry): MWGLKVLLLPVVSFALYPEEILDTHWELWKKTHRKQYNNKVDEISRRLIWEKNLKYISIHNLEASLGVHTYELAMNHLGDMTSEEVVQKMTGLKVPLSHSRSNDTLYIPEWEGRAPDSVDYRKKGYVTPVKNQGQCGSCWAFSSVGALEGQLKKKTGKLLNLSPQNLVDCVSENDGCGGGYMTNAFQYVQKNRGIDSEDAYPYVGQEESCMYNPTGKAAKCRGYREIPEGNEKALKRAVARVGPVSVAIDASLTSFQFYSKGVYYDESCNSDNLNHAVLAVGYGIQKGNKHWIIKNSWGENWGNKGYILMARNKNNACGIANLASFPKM
Put plainly: Inhibition of 10 µM Cbz-Phe-Arg-AMC binding to human cathepsin K in fluorescence assay with 100 mM NaOAc.

The target in another data set is Cathepsin S (Homo sapiens, UniProt P25774). Description: Inhibition of 10 µM Cbz-Val-Val-Arg-AMC binding to human cathepsin S in fluorescence assay with 100 mM NaOAc.
Cathepsin S, sequence (P25774 whole entry): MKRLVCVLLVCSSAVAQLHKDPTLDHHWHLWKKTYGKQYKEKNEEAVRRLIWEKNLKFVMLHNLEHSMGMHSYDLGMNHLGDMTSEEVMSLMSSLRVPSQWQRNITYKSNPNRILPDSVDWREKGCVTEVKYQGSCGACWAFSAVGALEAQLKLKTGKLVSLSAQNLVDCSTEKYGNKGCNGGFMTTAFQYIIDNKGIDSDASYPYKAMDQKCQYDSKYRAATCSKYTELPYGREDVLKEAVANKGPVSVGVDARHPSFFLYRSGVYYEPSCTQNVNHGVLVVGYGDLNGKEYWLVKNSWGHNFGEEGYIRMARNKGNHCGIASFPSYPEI
Data set [2] can be described thus: Steady-state volume of distribution of compound was determined after i.v. administration. In kind it is ADME, organism-based. As to conditions: rat, in vivo, iv; for Vd: read-out: VSS.
Data set [3] in a line: Terminal half-life dosed as a solution in male Han Wistar rat administered i.v. The data set is classed as ADME, organism-based. Particulars: in vivo, iv; for half-life: male, Han Wistar.
A short description of data set [4]: Oral bioavailability (i.v. administration). The data set is classed as ADME, organism-based. As to conditions: rat, in vivo.
A short description of data set [5]: The total clearance after i.v. administration. In kind it is ADME, organism-based. Particulars: rat, in vivo, iv.

Procathepsin L, sequence (P07711 whole entry): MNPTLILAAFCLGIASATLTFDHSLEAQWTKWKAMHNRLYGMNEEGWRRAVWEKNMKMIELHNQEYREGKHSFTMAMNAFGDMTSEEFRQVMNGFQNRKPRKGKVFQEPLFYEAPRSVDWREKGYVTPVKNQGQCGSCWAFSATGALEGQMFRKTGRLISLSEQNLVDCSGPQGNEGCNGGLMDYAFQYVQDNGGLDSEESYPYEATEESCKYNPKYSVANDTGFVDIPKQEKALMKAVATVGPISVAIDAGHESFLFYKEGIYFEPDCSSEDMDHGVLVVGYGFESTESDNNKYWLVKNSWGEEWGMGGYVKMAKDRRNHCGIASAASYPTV

What is called IC50 is the midpoint of a concentration-inhibition curve. Lower therefore signals higher potency. Broadly, the half-life is the time needed for the level to fall by half in the phase considered. As usually defined, the bioavailability is dose-corrected exposure relative to a reference, in per cent. A high value points to much systemic uptake. Usually clearance stands for a measure of how efficiently the substance is removed, as volume per time. Low readings indicate inefficient removal, high ones efficient removal. With `CCCC[C@H](NC(=O)O[C@H](Cc1nnc(-c2ccc(F)cc2)o1)C(C)(C)C)C(=O)C(=O)Nc1ccn[nH]1`, the solubility thermodynamic in data set [1] (read-out: FS-SIF) was 58 µg/mL (≈ 113 µM). Further, the IC50 stood at 3800 µM on Procathepsin L; 230 µM on Cathepsin L2; 3500 µM on Cathepsin B; 0.0049 µM at Cathepsin K; 110 µM on Cathepsin S. For the same compound, the Vd in data set [2] stood at 3.6 L/kg. The half-life in data set [3] was found to be 2.5 h. The same compound displayed a bioavailability in [4] of 88%. The clearance in data set [5] is 33 mL/min/kg.
`CCCC[C@H](NC(=O)O[C@H](Cc1nnc(-c2ccccc2)o1)C(C)(C)C)C(=O)C(=O)N[C@H](C)c1ccccc1`: the IC50 at Procathepsin L came to 10 µM; on Cathepsin L2, 1.6 µM; at Cathepsin B it was 12 µM; at Cathepsin S it was 0.75 µM.
On to `CCCC[C@H](NC(=O)O[C@H](Cn1cnc(-c2ccc(C(F)(F)F)cc2)c1)C(C)(C)C)C(=O)C(=O)Nc1nccs1`, for which the solubility thermodynamic in [1] (read-out: FS-SIF) is 48 µg/mL (≈ 82.8 µM). The IC50 came to 1000 µM at Procathepsin L, 36 µM on Cathepsin L2, 870 µM at Cathepsin B and 19 µM at Cathepsin S. Moreover, the Vd in data set [2] turned out to be 1.8 L/kg. This compound yielded a half-life in [3] of 4.67 h. The bioavailability in data set [4] is 43%. The clearance in data set [5] is 15 mL/min/kg.
Take `CCCC[C@H](NC(=O)O[C@H](Cc1nnc(-c2ccc(C(F)(F)F)cc2)o1)C(C)(C)C)C(=O)C(=O)Nc1ccn[nH]1`: the solubility thermodynamic in [1] (read-out: FS-SIF) is 61 µg/mL (≈ 108 µM). In addition, the IC50 against Procathepsin L came out at 69 µM; on Cathepsin L2 it was 1.2 µM; at Cathepsin B, 45 µM; at Cathepsin S it was 0.52 µM. In [2], the Vd is 1.9 L/kg. For the same compound, the half-life in data set [3] was found to be 8.83 h. This compound also had a bioavailability in data set [4] of 50%. The compound also returned a clearance in data set [5] of 11 mL/min/kg.
In the case of `CCCC[C@H](NC(=O)O[C@H](Cc1nnc(-c2ccc(F)cc2)o1)C(C)(C)C)C(=O)C(=O)N[C@H](C)c1ccccc1`, the IC50 is 33 µM against Procathepsin L, 34 µM on Cathepsin L2, 9.8 µM on Cathepsin B and 0.53 µM at Cathepsin S.
For `CCCC[C@H](NC(=O)O[C@H](Cc1nnc(-c2ccccc2)o1)C(C)(C)CC)C(=O)C(=O)N[C@H](C)c1ccccc1`, the IC50 on Procathepsin L was determined as 17 µM; on Cathepsin L2, 2.8 µM; on Cathepsin B it was 56 µM; at Cathepsin K it was 0.0015 µM; on Cathepsin S, 0.72 µM.
As to `CCCC[C@H](NC(=O)O[C@H](Cn1ccc(-c2ccc(C(F)(F)F)cc2)n1)C(C)(C)C)C(=O)C(=O)Nc1ccccn1`, the solubility thermodynamic in data set [1] (read-out: FS-SIF) is 380 µg/mL (≈ 662 µM). Moreover, the IC50 against Procathepsin L is 240 µM; at Cathepsin L2, 4.5 µM; on Cathepsin B, 107 µM; on Cathepsin K it was 0.0081 µM; at Cathepsin S it was 3.7 µM. In addition, in data set [2], the Vd is 1.8 L/kg. For the same compound, in data set [3], the half-life is 3.5 h. Moreover, in data set [4], the bioavailability worked out at 34%. Moreover, the clearance in data set [5] came to 41 mL/min/kg.
As to `CCCC[C@H](NC(=O)O[C@H](Cc1nnc(-c2ccc(F)cc2)o1)C(C)(C)C)C(=O)C(=O)NCc1cccnc1`, the solubility thermodynamic in [1] (read-out: FS-SIF) was 490 µg/mL (≈ 908 µM). Besides, the IC50 was 130 µM against Procathepsin L, 14 µM at Cathepsin L2, 18 µM at Cathepsin B and 2.7 µM at Cathepsin S. In addition, the Vd in data set [2] is 1.4 L/kg. Moreover, the half-life in [3] came out at 3.83 h. The bioavailability in data set [4] is 46%. Besides, the clearance in data set [5] turned out to be 11 mL/min/kg.
Turning to `CCCC[C@H](NC(=O)O[C@H](Cc1nnc(-c2ccccc2)o1)C(C)C)C(=O)C(=O)N[C@H](C)c1ccccc1`, the IC50 against Procathepsin L turned out to be 17 µM; at Cathepsin L2 it was 5.6 µM; at Cathepsin B it was 31 µM; at Cathepsin K it was 0.00083 µM; on Cathepsin S, 3.7 µM.
Regarding `CCCC[C@H](NC(=O)O[C@H](Cn1cc(-c2ccc(C(F)(F)F)cc2)cn1)C(C)(C)C)C(=O)C(=O)Nc1ccn[nH]1`, the solubility thermodynamic in data set [1] (read-out: FS-SIF) is 97 µg/mL (≈ 172 µM). In addition, the 50% inhibitory concentration (IC50) came out at 36 µM against Procathepsin L; 0.43 µM on Cathepsin L2; 10 µM on Cathepsin B; 0.032 µM on Cathepsin K; 0.078 µM on Cathepsin S. Also, the Vd in [2] was determined as 2.1 L/kg. The half-life in data set [3] was determined as 5.67 h. The compound further returned a bioavailability in data set [4] of 45%. Further, the clearance in data set [5] worked out at 9.1 mL/min/kg.
For `CCCC[C@H](NC(=O)O[C@H](CN1CCN(c2ccc(C(F)(F)F)cc2)C1=O)C(C)(C)C)C(=O)C(=O)Nc1ccn[nH]1`, the solubility thermodynamic in data set [1] (read-out: FS-SIF) was 43 µg/mL (≈ 74.1 µM). The IC50 on Procathepsin L worked out at 37 µM; at Cathepsin L2, 1.7 µM; on Cathepsin B, 60 µM; on Cathepsin S, 0.54 µM. For the same compound, the Vd in data set [2] came out at 5 L/kg. In addition, the half-life in data set [3] stood at 5.67 h. In data set [4], the bioavailability amounted to 27%. The clearance in data set [5] is 55 mL/min/kg.
`CCCC[C@H](NC(=O)O[C@H](Cn1cnc(-c2ccc(C(F)(F)F)cc2)c1)C(C)(C)C)C(=O)C(=O)Nc1ccn[nH]1`: the solubility thermodynamic in data set [1] (read-out: FS-SIF) was 130 µg/mL (≈ 231 µM). Further, the IC50 was 10 µM against Procathepsin L, 0.13 µM at Cathepsin L2, 27 µM at Cathepsin B and 0.16 µM on Cathepsin S. Further, the Vd in data set [2] is 2.4 L/kg. The compound further gave a half-life in [3] of 7.67 h. In addition, the bioavailability in data set [4] was determined as 55%. The clearance in data set [5] is 15 mL/min/kg.
For `CCCC[C@H](NC(=O)O[C@H](Cn1ccc(-c2ccc(C(F)(F)F)cc2)n1)C(C)(C)C)C(=O)C(=O)Nc1ccn[nH]1`, the solubility thermodynamic in data set [1] (read-out: FS-SIF) was 110 µg/mL (≈ 196 µM). Moreover, the concentration for half-maximal inhibition (IC50) was 8.7 µM at Procathepsin L; 0.17 µM at Cathepsin L2; 20 µM at Cathepsin B; 0.072 µM at Cathepsin K; 0.21 µM at Cathepsin S. For the same compound, in [2], the VSS came out at 0.32 L/kg. For the same compound, in data set [3], the T1/2 came to 1.52 h. Further, the bioavailability in data set [4] was 9.6%. The compound further displayed a CL in [5] of 0.11 mL/min/kg.
In the case of `CCCC[C@H](NC(=O)O[C@H](Cc1nnc(-c2ccc(C(F)(F)F)cc2)o1)C(C)(C)C)C(=O)C(=O)N[C@H](C)c1ccccc1`, the IC50 at Procathepsin L was found to be 190 µM; at Cathepsin L2 it was 5 µM; on Cathepsin B it was 32 µM; on Cathepsin S, 1.6 µM.
In [1], `CCCC[C@H](NC(=O)O[C@H](Cn1ccc(-c2ccc(C(F)(F)F)cc2)n1)C(C)(C)C)C(=O)C(=O)NCc1ccno1` gave a solubility thermodynamic of 180 µg/mL (≈ 312 µM). Besides, the IC50 at Procathepsin L is 1000 µM; on Cathepsin L2 it was 36 µM; at Cathepsin B, 870 µM; on Cathepsin K, 0.0058 µM; on Cathepsin S, 19 µM. Further, the Vd in data set [2] turned out to be 1.7 L/kg. Also, the half-life in data set [3] stood at 6.67 h. Further, the bioavailability in data set [4] was determined as 40%. The compound also registered a clearance in data set [5] of 3.2 mL/min/kg.
On to `CCCC[C@H](NC(=O)O[C@H](Cc1nnc(-c2ccc(C(F)(F)F)cc2)o1)C(C)(C)C)C(=O)C(=O)NN1CCOC1=O`, for which the solubility thermodynamic in [1] (read-out: FS-SIF) was 170 µg/mL (≈ 291 µM). For the same compound, the IC50 at Procathepsin L was found to be 160 µM; at Cathepsin L2 it was 7.1 µM; at Cathepsin B it was 5.2 µM; on Cathepsin S it was 1.2 µM. Besides, in data set [2], the Vd stood at 3.1 L/kg. In [3], this compound had a half-life of 6.83 h. The compound also showed a bioavailability in data set [4] of 79%. In [5], this compound showed a clearance of 11 mL/min/kg.
For the compound `CCCC[C@H](NC(=O)OC(Cc1nnc(-c2ccc(F)cc2)o1)C(C)(C)C)C(=O)C(=O)N[C@H]1CCCNC1=O` (stereo partly specified), the solubility thermodynamic in data set [1] (read-out: FS-SIF) was 620 µg/mL (≈ 1140 µM). The IC50 is 15 µM on Procathepsin L; 1.3 µM at Cathepsin L2; 6.2 µM at Cathepsin B; 0.00065 µM at Cathepsin K; 0.81 µM on Cathepsin S. Further, in data set [2], the Vd stood at 1.4 L/kg. This compound also had a half-life in [3] of 2.33 h. Moreover, in [4], the bioavailability was 17%. The clearance in data set [5] was found to be 35 mL/min/kg.
